Reference: patent publication US12052991B2, “Substituted pyridinyloxybenzenes and salts thereof and use thereof as herbicidal agents” (Bayer Aktiengesellschaft, priority 2018, dated 2024)

How the values were obtained:
Format in all cases: in vivo
[1] = system: Amaranthus retroflexus (AMARE); test: Herbicidal pre-emergence action, test C (Table C6); conditions: visual scoring after about 3 weeks, 100% = plants have died, 0% = like control plants
Outline: (§1)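 Application rates of 1280 or 320 g/ha were delivered as WP or EC formulations in water with 0.5% additive, 600 L/ha, onto soil covering freshly sown seeds in sandy loam. Pots stayed under good greenhouse growth conditions, and efficacy was rated as visual percent after about 3 weeks.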

Poa annua (POAAN) [2] = test: Herbicidal post-emergence action (Table B3); conditions: rated visually after about 3 weeks, 100% = plants have died, 0% = like control plants
Outline: (§2)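 Activity was scored visually against untreated plants roughly 3 weeks after treatment, 0% meaning like control and 100% plant death. Application was post-emergence onto green parts at the one-leaf stage, as aqueous suspension/emulsion with 0.5% additive, 600 l/ha, delivering 1280 or 320 g/ha to greenhouse plants in sandy loam.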

[3] = system: Echinochloa crus-galli (ECHCG); test: Herbicidal pre-emergence action, test C (Table C1); conditions: visual scoring after about 3 weeks, 100% = plants have died, 0% = like control plants
Outline: as §1

Stellaria media (STEME) [4] = test: Herbicidal post-emergence action (Table B8); conditions: visual rating about 3 weeks after treatment, 100% = plants have died, 0% = like control plants
Outline: as §2

[5] = system: Amaranthus retroflexus (AMARE); test: Herbicidal post-emergence action (Table B6); conditions: visual rating about 3 weeks after treatment, 100% = plants have died, 0% = like control plants
Outline: as §2

[6] = system: Echinochloa crus-galli (ECHCG); test: Herbicidal post-emergence action (Table B1); conditions: rated visually after about 3 weeks, 100% = plants have died, 0% = like control plants
Outline: as §2

Setaria viridis (SETVI) [7] = test: Herbicidal pre-emergence action, test C (Table C4); conditions: visual scoring after about 3 weeks, 100% = plants have died, 0% = like control plants
Outline: as §1

Stellaria media (STEME) [8] = test: Herbicidal pre-emergence action, test C (Table C8); conditions: visual scoring after about 3 weeks, 100% = plants have died, 0% = like control plants
Outline: as §1

[9] = system: Abutilon theophrasti (ABUTH); test: Herbicidal post-emergence action (Table B5); conditions: rated visually after about 3 weeks, 100% = plants have died, 0% = like control plants
Outline: as §2

[10] = system: harmful plants ABUTH, AMARE, ECHCG, LOLRI, MATIN, POAAN, SETVI, STEME, ALOMY, DIGSA, KCHSC and VERPE; test: Herbicidal pre-emergence action (test C), summary of Tables C1-C12; conditions: application rate of 1280 or 320 g of active ingredient per hectare; summary in words
Outline: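 Visual % damage versus untreated plants (0% = like control, 100% = died) was scored after about 3 weeks in the greenhouse. Before emergence, seeds sown in sandy loam got a soil-surface spray of compound as WP or EC plus 0.5% additive, using 600 L/ha water at rates of 1280 or 320 g/ha.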

Lolium rigidum (LOLRI) [11] = test: Herbicidal pre-emergence action, test C (Table C2); conditions: visual scoring after about 3 weeks, 100% = plants have died, 0% = like control plants
Outline: as §1

Setaria viridis (SETVI) [12] = test: Herbicidal post-emergence action (Table B4); conditions: rated visually after about 3 weeks, 100% = plants have died, 0% = like control plants
Outline: as §2

[13] = system: Abutilon theophrasti (ABUTH); test: Herbicidal pre-emergence action, test C (Table C5); conditions: visual scoring after about 3 weeks, 100% = plants have died, 0% = like control plants
Outline: as §1

[14] = system: harmful plants ABUTH, AMARE, ECHCG, LOLRI, MATIN, POAAN, SETVI, STEME, ALOMY, DIGSA, KCHSC and VERPE; test: Herbicidal post-emergence action, summary of Tables B1-B12; conditions: application rate of 1280 or 320 g of active ingredient per hectare; summary in words
Outline: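 Activity scored by eye roughly 3 weeks post-treatment against untreated plants, from 0% (no effect) to 100% (plants dead). Application rates were 1280 or 320 g/ha, as aqueous WP/EC spray plus 0.5% additive at 600 L/ha, onto one-leaf-stage weeds grown 2–3 weeks in sandy loam.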

Poa annua (POAAN) [15] = test: Herbicidal pre-emergence action, test C (Table C3); conditions: visual scoring after about 3 weeks, 100% = plants have died, 0% = like control plants
Outline: as §1

Lolium rigidum (LOLRI) [16] = test: Herbicidal post-emergence action (Table B2); conditions: rated visually after about 3 weeks, 100% = plants have died, 0% = like control plants
Outline: as §2

Structure (SMILES)	Pre-emergence action against Amaranthus retroflexus (AMARE) ([1]; dosage 320 g/ha) [%]	Pre-emergence action against Amaranthus retroflexus (AMARE) ([1]; dosage 1280 g/ha) [%]	Post-emergence action against Poa annua (POAAN) (Poa annua (POAAN) [2]; 320 g/ha) [%]	Post-emergence action against Poa annua (POAAN) (Poa annua (POAAN) [2]; 1280 g/ha) [%]	Pre-emergence action against Echinochloa crus-galli (ECHCG) ([3]; dosage 1280 g/ha) [%]	Post-emergence action against Stellaria media (STEME) (Stellaria media (STEME) [4]; dosage 320 g/ha) [%]	Post-emergence action against Stellaria media (STEME) (Stellaria media (STEME) [4]; dosage 1280 g/ha) [%]	Post-emergence action against Amaranthus retroflexus (AMARE) ([5]; dosage 320 g/ha) [%]	Post-emergence action against Amaranthus retroflexus (AMARE) ([5]; dosage 1280 g/ha) [%]	Post-emergence action against Echinochloa crus-galli (ECHCG) ([6]; 320 g/ha) [%]	Post-emergence action against Echinochloa crus-galli (ECHCG) ([6]; 1280 g/ha) [%]	Pre-emergence action against Setaria viridis (SETVI) (Setaria viridis (SETVI) [7]; dosage 320 g/ha) [%]	Pre-emergence action against Setaria viridis (SETVI) (Setaria viridis (SETVI) [7]; dosage 1280 g/ha) [%]	Pre-emergence action against Stellaria media (STEME) (Stellaria media (STEME) [8]; dosage 320 g/ha) [%]	Pre-emergence action against Stellaria media (STEME) (Stellaria media (STEME) [8]; dosage 1280 g/ha) [%]	Post-emergence action against Abutilon theophrasti (ABUTH) ([9]; 320 g/ha) [%]	Post-emergence action against Abutilon theophrasti (ABUTH) ([9]; 1280 g/ha) [%]	herbicidal activity against the harmful plants of Tables C1-C12 in pre-emergence treatment [10]	Pre-emergence action against Lolium rigidum (LOLRI) (Lolium rigidum (LOLRI) [11]; dosage 1280 g/ha) [%]	Post-emergence action against Setaria viridis (SETVI) (Setaria viridis (SETVI) [12]; 1280 g/ha) [%]	other results
Fc1cccc(Oc2ccc(Cl)cn2)c1-c1cc(C(F)F)no1 [Example 1-17]	100	100	100	100	100	100	100	100	100	100	100	100	100	100	100	100	100	very good herbicidal activity	100	100	Pre-emergence action against Echinochloa crus-galli (ECHCG) ([3]; dosage 320 g/ha): 90%; Pre-emergence action against Lolium rigidum (LOLRI) (Lolium rigidum (LOLRI) [11]; dosage 320 g/ha): 100%; Post-emergence action against Setaria viridis (SETVI) (Setaria viridis (SETVI) [12]; 320 g/ha): 100%; Pre-emergence action against Abutilon theophrasti (ABUTH) ([13]; dosage 320 g/ha): 100%; Pre-emergence action against Abutilon theophrasti (ABUTH) ([13]; dosage 1280 g/ha): 100%; herbicidal activity against the harmful plants of Tables B1-B12 in post-emergence treatment [14]: very good herbicidal activity; Pre-emergence action against Poa annua (POAAN) (Poa annua (POAAN) [15]; dosage 320 g/ha): 100%; Pre-emergence action against Poa annua (POAAN) (Poa annua (POAAN) [15]; dosage 1280 g/ha): 100%; Post-emergence action against Lolium rigidum (LOLRI) (Lolium rigidum (LOLRI) [16]; 320 g/ha): 100%; Post-emergence action against Lolium rigidum (LOLRI) (Lolium rigidum (LOLRI) [16]; 1280 g/ha): 100%
FC(F)c1cc(-c2ccccc2Oc2ccc(Cl)cn2)on1 [Example 1-35]	100	100	100	100	100	100	100	100	100	100	100	100	100	100	100	100	100	very good herbicidal activity	90	100	Pre-emergence action against Abutilon theophrasti (ABUTH) ([13]; dosage 320 g/ha): 100%; Pre-emergence action against Abutilon theophrasti (ABUTH) ([13]; dosage 1280 g/ha): 100%; herbicidal activity against the harmful plants of Tables B1-B12 in post-emergence treatment [14]: very good herbicidal activity; Pre-emergence action against Poa annua (POAAN) (Poa annua (POAAN) [15]; dosage 320 g/ha): 100%; Pre-emergence action against Poa annua (POAAN) (Poa annua (POAAN) [15]; dosage 1280 g/ha): 100%; Post-emergence action against Lolium rigidum (LOLRI) (Lolium rigidum (LOLRI) [16]; 1280 g/ha): 100%
Fc1cccc(Oc2ccc(Br)cn2)c1-c1cc(C(F)F)no1 [Example 1-40]	100	100	100	100	100	100	100	100	100	100	100	100	100	100	100	100	100	very good herbicidal activity	100	100	Pre-emergence action against Echinochloa crus-galli (ECHCG) ([3]; dosage 320 g/ha): 100%; Pre-emergence action against Lolium rigidum (LOLRI) (Lolium rigidum (LOLRI) [11]; dosage 320 g/ha): 90%; Post-emergence action against Setaria viridis (SETVI) (Setaria viridis (SETVI) [12]; 320 g/ha): 100%; Pre-emergence action against Abutilon theophrasti (ABUTH) ([13]; dosage 320 g/ha): 100%; Pre-emergence action against Abutilon theophrasti (ABUTH) ([13]; dosage 1280 g/ha): 100%; herbicidal activity against the harmful plants of Tables B1-B12 in post-emergence treatment [14]: very good herbicidal activity; Pre-emergence action against Poa annua (POAAN) (Poa annua (POAAN) [15]; dosage 320 g/ha): 100%; Pre-emergence action against Poa annua (POAAN) (Poa annua (POAAN) [15]; dosage 1280 g/ha): 100%; Post-emergence action against Lolium rigidum (LOLRI) (Lolium rigidum (LOLRI) [16]; 320 g/ha): 100%; Post-emergence action against Lolium rigidum (LOLRI) (Lolium rigidum (LOLRI) [16]; 1280 g/ha): 100%
